Data reported in patent US10525041B2, “Fluoroalkyl-substituted aryltriazole derivatives and uses thereof” (BAYER PHARMA AKTIENGESELLSCHAFT, priority 2016, dated 2020).

Columns and labels:
human V1a receptor = target: T1, human V1a receptor (Homo sapiens, UniProt P37288); experiment: Cellular in vitro assay for vasopressin receptor activity, V1a cell line (aequorin luminescence); assay type: cell-based; conditions: for IC50: CHO cell line transfected with human V1a receptor, agonist [Arg8]-vasopressin at EC50 concentration, read-out: IC50hV1a; for ratio IC50 hV2/hV1a: ratio of the IC50 on human V2 to the IC50 on human V1a
T1 construct: expressed in transfected cells; host or cells: CHO K1 (ATCC), also stably transfected with a modified aequorin
T1 sequence (P37288 whole entry): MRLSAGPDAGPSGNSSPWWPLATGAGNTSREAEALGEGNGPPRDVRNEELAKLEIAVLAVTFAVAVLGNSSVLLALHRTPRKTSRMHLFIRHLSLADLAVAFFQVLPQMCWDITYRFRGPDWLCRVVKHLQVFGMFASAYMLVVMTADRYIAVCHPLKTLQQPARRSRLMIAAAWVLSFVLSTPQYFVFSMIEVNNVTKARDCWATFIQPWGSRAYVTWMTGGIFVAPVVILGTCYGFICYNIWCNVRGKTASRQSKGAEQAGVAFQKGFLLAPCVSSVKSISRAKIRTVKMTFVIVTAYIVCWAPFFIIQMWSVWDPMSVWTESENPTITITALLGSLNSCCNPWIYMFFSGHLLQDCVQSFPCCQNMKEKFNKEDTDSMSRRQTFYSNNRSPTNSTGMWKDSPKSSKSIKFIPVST
Experimental: (§1) B-1. Cellular In Vitro Assay for Determining Vasopressin Receptor Activity
(§2) The identification of agonists and antagonists of the V1a and V2 vasopressin receptors from humans, rats and dogs as well as the quantification of the activity of the compounds of the invention is carried out using recombinant cell lines. These cell lines originally derive from a hamster's ovary epithelial cell (Chinese Hamster Ovary, CHO K1, ATCC: American Type Culture Collection, Manassas, Va. 20108, USA). The test cell lines constitutively express the human, rat or dog V1a or V2 receptors. In case of the Gαq-coupled V1a receptors, cells are also stably transfected with a modified form of the calcium-sensitive photoproteins aequorin (human and rat V1a) or obelin (dog V1a), which, after reconstitution with the cofactor coelenterazine, emit light when there are increases in free calcium concentrations [Rizzuto R, Simpson A W, Brini M, Pozzan T, Nature 358, 325-327 (1992); Illarionov B A, Bondar V S, Illarionova V A, Vysotski E S, Gene 153 (2), 273-274 (1995)]. The resulting vasopressin receptor cells react to stimulation of the recombinantly expressed V1a receptors by intracellular release of calcium ions, which can be quantified by the resulting photoprotein luminescence. The Gs-coupled V2 receptors are stably transfected into cell lines expressing the gene for firefly luciferase under control of a CRE-responsible promoter. Activation of V2 receptors induces the activation of the CRE-responsive promoter via cAMP increase, thereby inducing the expression of firefly luciferase. The light emitted by photoproteins of V1a cell lines as well as the light emitted by firefly luciferase of V2 cell lines corresponds to the activation or inhibition of the respective vasopressin receptor. The bioluminescence of the cell lines is detected using a suitable luminometer [Milligan G, Marshall F, Rees S, Trends in Pharmacological Sciences 17, 235-237 (1996)].
Vasopressin V1a Receptor Cell Lines:
On the day before the assay, the cells are plated out in culture medium (DMEM/F12, 2% FCS, 2 mM glutamine, 10 mM HEPES, 5 μg/ml coelenterazine) in 384-well microtiter plates and kept in a cell incubator (96% humidity, 5% v/v CO2, 37° C.). On the day of the assay, test compounds in various concentrations are placed for 10 minutes in the wells of the microtiter plate before the agonist [Arg^8]-vasopressin at EC50 concentration is added. The resulting light signal is measured immediately in a luminometer.
(§3) Table 1A below lists individual IC50 values for the compounds of the invention (including racemic mixtures as well as separated enantiomers) that were obtained from cell lines transfected with the human V1a or V2 receptor: […]

human V2 receptor = target: T2, human V2 receptor (Homo sapiens, UniProt P30518); experiment: Cellular in vitro assay for vasopressin receptor activity, V2 cell line (CRE-luciferase); assay type: cell-based; conditions: CHO cell line transfected with human V2 receptor; agonist [Arg8]-vasopressin at EC50 concentration, 3 hours; read-out: IC50hV2
T2 construct: expressed in transfected cells; host or cells: CHO K1 (ATCC) line expressing firefly luciferase under a CRE-responsive promoter
T2 sequence (P30518 whole entry): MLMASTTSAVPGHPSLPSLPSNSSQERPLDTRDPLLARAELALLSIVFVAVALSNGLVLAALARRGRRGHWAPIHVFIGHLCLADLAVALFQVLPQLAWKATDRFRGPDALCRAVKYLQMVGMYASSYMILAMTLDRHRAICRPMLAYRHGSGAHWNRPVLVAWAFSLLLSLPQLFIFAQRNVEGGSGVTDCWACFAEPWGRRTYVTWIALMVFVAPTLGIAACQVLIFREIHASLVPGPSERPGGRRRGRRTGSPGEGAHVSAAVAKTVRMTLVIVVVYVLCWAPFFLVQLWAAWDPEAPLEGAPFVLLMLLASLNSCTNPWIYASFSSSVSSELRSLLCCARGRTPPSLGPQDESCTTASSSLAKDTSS
Experimental: as §1, §2
Vasopressin V2 Receptor Cell Lines:
On the day before the assay, the cells are plated out in culture medium (DMEM/F12, 2% FCS, 2 mM glutamine, 10 mM HEPES) in 384-well microtiter plates and kept in a cell incubator (96% humidity, 5% v/v CO2, 37° C.). On the day of the assay, test compounds in various concentrations and the agonist [Arg^8]-vasopressin at EC50 concentration are added together to the wells, and plates are incubated for 3 hours in a cell incubator. Upon addition of the cell lysis reagent Triton™ and the substrate luciferin, luminescence of firefly luciferase is measured in a luminometer.
as §3

Row | IC50 (human V1a receptor) [nM] | ratio IC50 hV2/hV1a (human V1a receptor) | IC50 (human V2 receptor) [nM] | Structure (SMILES)
1 | 1.8 | 4.4 | 7.85 | CCOc1ccccc1-n1nc(Cn2nc(-c3ccc(Cl)cc3)n(C[C@H](O)C(F)(F)F)c2=O)nc1C(C)(F)F [Example 67, 5-(4-Chlorophenyl)-2-{[5-(1,1-difluoroethyl)-1-(2-ethoxyphenyl)-1H-1,2,4-triazol-3-yl]methyl}-4-[(2S)-3,3,3-trifluoro-2-hydroxypropyl]-2,4-dihydro-3H-1,2,4-triazol-3-one]
2 | 0.35 | 2.0 | 0.7 | CC(F)c1nc(Cn2nc(-c3ccc(Cl)cc3)n(C[C@H](O)C(F)(F)F)c2=O)nn1-c1ccccc1Cl (mixture of isomers) [Example 1, 5-(4-Chlorophenyl)-2-({1-(2-chlorophenyl)-5-[1-fluoroethyl]-1H-1,2,4-triazol-3-yl}methyl)-4-[(2S)-3,3,3-trifluoro-2-hydroxypropyl]-2,4-dihydro-3H-1,2,4-triazol-3-one]
3 | 36 | 0.1 | 2.59 | O=c1n(Cc2nc(C(F)F)n(-c3cccc(Cl)c3)n2)nc(-c2ccc(Cl)cc2)n1C[C@H](O)C(F)(F)F [Example 50, 5-(4-Chlorophenyl)-2-{[1-(3-chlorophenyl)-5-(difluoromethyl)-1H-1,2,4-triazol-3-yl]methyl}-4-[(2S)-3,3,3-trifluoro-2-hydroxypropyl]-2,4-dihydro-3H-1,2,4-triazol-3-one]
4 | 1.4 | 0.7 | 0.98 | CSc1ccccc1-n1nc(Cn2nc(-c3ccc(Cl)cc3)n(C[C@H](O)C(F)(F)F)c2=O)nc1C(C)(F)F [Example 74, 5-(4-Chlorophenyl)-2-({5-(1,1-difluoroethyl)-1-[2-(methylsulfanyl)phenyl]-1H-1,2,4-triazol-3-yl}methyl)-4-[(2S)-3,3,3-trifluoro-2-hydroxypropyl]-2,4-dihydro-3H-1,2,4-triazol-3-one]
5 | 15.5 | 0.3 | 5.25 | CC(F)(F)c1nc(Cn2nc(-c3ccc(Cl)cc3)n(C[C@H](O)C(F)(F)F)c2=O)nn1-c1cccc(F)c1 [Example 56, 5-(4-Chlorophenyl)-2-{[5-(1,1-difluoroethyl)-1-(3-fluorophenyl)-1H-1,2,4-triazol-3-yl]methyl}-4-[(2S)-3,3,3-trifluoro-2-hydroxypropyl]-2,4-dihydro-3H-1,2,4-triazol-3-one]
6 | 1.1 | 4.2 | 4.65 | CC(F)c1nc(Cn2nc(-c3ccc(Cl)cc3)n(C[C@H](O)C(F)(F)F)c2=O)nn1-c1ccccc1C(F)(F)F (single isomer, unassigned) [Example 24]
7 | 2.7 | 6.3 | 17 | CC(F)c1nc(Cn2nc(-c3ccc(Cl)cc3)n(C[C@H](O)C(F)(F)F)c2=O)nn1-c1ccccc1OC(F)(F)F (mixture of isomers) [Example 25, 5-(4-Chlorophenyl)-2-({5-[1-fluoroethyl]-1-[2-(trifluoromethoxy)phenyl]-1H-1,2,4-triazol-3-yl}methyl)-4-[(2S)-3,3,3-trifluoro-2-hydroxypropyl]-2,4-dihydro-3H-1,2,4-triazol-3-one]
8 | 4.7 | 5.7 | 26.7 | CC(F)(F)c1nc(Cn2nc(-c3ccc(Cl)cc3)n(C[C@H](O)C(F)(F)F)c2=O)nn1-c1ncccc1C(F)(F)F [Example 59, 5-(4-Chlorophenyl)-2-({5-(1,1-difluoroethyl)-1-[3-(trifluoromethyl)pyridin-2-yl]-1H-1,2,4-triazol-3-yl}methyl)-4-[(2S)-3,3,3-trifluoro-2-hydroxypropyl]-2,4-dihydro-3H-1,2,4-triazol-3-one]
9 | 2 | 12.3 | 24.5 | CC(F)(F)c1nc(Cn2nc(-c3ccc(Cl)cc3)n(C[C@H](O)C(F)(F)F)c2=O)nn1-c1cnccc1C(F)(F)F [Example 57, 5-(4-Chlorophenyl)-2-({5-(1,1-difluoroethyl)-1-[4-(trifluoromethyl)pyridin-3-yl]-1H-1,2,4-triazol-3-yl}methyl)-4-[(2S)-3,3,3-trifluoro-2-hydroxypropyl]-2,4-dihydro-3H-1,2,4-triazol-3-one]
10 | 1.47 | 1.5 | 2.2 | O=c1n(Cc2nc(C(F)F)n(-c3ccccc3Cl)n2)nc(-c2ccc(Cl)cc2)n1C[C@H](O)C(F)(F)F [Example 51, 5-(4-Chlorophenyl)-2-{[1-(2-chlorophenyl)-5-(difluoromethyl)-1H-1,2,4-triazol-3-yl]methyl}-4-[(2S)-3,3,3-trifluoro-2-hydroxypropyl]-2,4-dihydro-3H-1,2,4-triazol-3-one]
11 | 0.78 | 3.3 | 2.58 | O=c1n(Cc2nc(C(F)(F)F)n(-c3ccccc3Cl)n2)nc(-c2ccc(Cl)cc2)n1C[C@H](O)C(F)(F)F [Example 79, 5-(4-Chlorophenyl)-2-{[1-(2-chlorophenyl)-5-(trifluoromethyl)-1H-1,2,4-triazol-3-yl]methyl}-4-[(2S)-3,3,3-trifluoro-2-hydroxypropyl]-2,4-dihydro-3H-1,2,4-triazol-3-one]
12 | 0.48 | 5.0 | 2.37 | CC(F)c1nc(Cn2nc(-c3ccc(Cl)cc3)n(C[C@H](O)C(F)(F)F)c2=O)nn1-c1cnccc1Cl (single isomer, unassigned) [Example 6]
13 | 0.4 | 2.9 | 1.16 | CC(F)(F)c1nc(Cn2nc(-c3ccc(Cl)cc3)n(C[C@H](O)C(F)(F)F)c2=O)nn1-c1ccccc1Cl [Example 53, 5-(4-Chlorophenyl)-2-{[1-(2-chlorophenyl)-5-(1,1-difluoroethyl)-1H-1,2,4-triazol-3-yl]methyl}-4-[(2S)-3,3,3-trifluoro-2-hydroxypropyl]-2,4-dihydro-3H-1,2,4-triazol-3-one]
14 | 1.55 | 8.1 | 12.5 | CC(F)c1nc(Cn2nc(-c3ccc(Cl)cc3)n(C[C@H](O)C(F)(F)F)c2=O)nn1-c1ncccc1Cl (single isomer, unassigned) [Example 21]
15 | 49.6 | 0.1 | 4.75 | O=c1n(Cc2nc(C(F)(F)F)n(-c3cccc(F)c3)n2)nc(-c2ccc(Cl)cc2)n1C[C@H](O)C(F)(F)F [Example 78, 5-(4-Chlorophenyl)-2-{[1-(3-fluorophenyl)-5-(trifluoromethyl)-1H-1,2,4-triazol-3-yl]methyl}-4-[(2S)-3,3,3-trifluoro-2-hydroxypropyl]-2,4-dihydro-3H-1,2,4-triazol-3-one]
16 | 1.25 | 15.8 | 19.8 | CC(F)c1nc(Cn2nc(-c3ccc(Cl)cc3)n(C[C@H](O)C(F)(F)F)c2=O)nn1-c1cnccc1C(F)(F)F (single isomer, unassigned) [Example 8]
17 | 30.5 | 0.2 | 4.9 | CCc1cccc(C)c1-n1nc(Cn2nc(-c3ccc(Cl)cc3)n(C[C@H](O)C(F)(F)F)c2=O)nc1C(C)F (mixture of isomers) [Example 48, 5-(4-Chlorophenyl)-2-({1-(2-ethyl-6-methylphenyl)-5-[1-fluoroethyl]-1H-1,2,4-triazol-3-yl}methyl)-4-[(2S)-3,3,3-trifluoro-2-hydroxypropyl]-2,4-dihydro-3H-1,2,4-triazol-3-one]
